melting point | Compound
206 to 208 °C | COCCc1sc2ncnc(N)c2c1-c1ccc(NS(=O)(=O)c2ccccc2)cc1 [Example 111, N-{4-[4-amino-6-(2-methoxyethyl)thieno[2,3-d]pyrimidin-5-yl]phenyl}benzenesulfonamide]
> 250 °C | CC(C)c1sc2ncnc(N)c2c1-c1ccc(NC(=O)c2ccccc2)cc1 [Example 8, N-[4-(4-amino-6-isopropylthieno[2,3-d]pyrimidin-5-yl)phenyl]benzamide]
100 to 105 °C | Nc1ncnc2sc(Cc3ccccc3)c(-c3ccc(NS(=O)(=O)c4ccccc4)cc3)c12 [Example 13, N-[4-(4-amino-6-benzylthieno[2,3-d]pyrimidin-5-yl)phenyl]benzenesulfonamide]
245 to 248 °C | Cc1ccccc1NC(=O)Nc1ccc(-c2c(Cc3ccccc3)sc3ncnc(N)c23)cc1 [Example 11, N-[4-(4-amino-6-benzylthieno[2,3-d]pyrimidin-5-yl)phenyl]-N′-(2-methylphenyl)urea]
162 to 166 °C | Nc1ncnc2sc(Cc3ccncc3)c(-c3ccc(NC(=O)Nc4cccc(C(F)(F)F)c4)cc3)c12 [Example 142, N-{4-[4-amino-6-(pyridin-4-ylmethyl)thieno[2,3-d]pyrimidin-5-yl]phenyl}-N′-[3-(trifluoromethyl)phenyl]urea]

Continued, compound first:

Compound | melting point
Nc1ncnc2sc(CCO)c(-c3ccc(NC(=O)Nc4cccc(C(F)(F)F)c4)cc3)c12 [Example 139, N-{4-[4-amino-6-(2-hydroxyethyl)thieno[2,3-d]pyrimidin-5-yl]phenyl}-N′-[3-(trifluoromethyl)phenyl]urea] | 155 to 158 °C
COCCc1sc2ncnc(N)c2c1-c1ccc(NC(=O)Cc2cccc(C)c2)cc1 [Example 112, N-{4-[4-amino-6-(2-methoxyethyl)thieno[2,3-d]pyrimidin-5-yl]phenyl}-2-(3-methylphenyl)acetamide] | 200 to 202 °C
COCCc1sc2ncnc(N)c2c1-c1ccc(NC(=O)Nc2cc(C(F)(F)F)ccc2F)cc1 [Example 140, N-{4-[4-amino-6-(2-methoxyethyl)thieno[2,3-d]pyrimidin-5-yl]phenyl}-N′-[2-fluoro-5-(trifluoromethyl)phenyl]urea] | 209 to 211 °C
Nc1ncnc2sc(Cc3cccnc3)c(-c3ccc(NC(=O)Nc4cccc(Cl)c4)cc3)c12 [Example 117, N-{4-[4-amino-6-(pyridin-3-ylmethyl)thieno[2,3-d]pyrimidin-5-yl]phenyl}-N′-(3-chlorophenyl)urea] | 169 to 172 °C
COCCc1sc2ncnc(N)c2c1-c1ccc(NC(=O)Nc2ccc(C)cc2)cc1 [Example 110, N-{4-[4-amino-6-(2-methoxyethyl)thieno[2,3-d]pyrimidin-5-yl]phenyl}-N′-(4-methylphenyl)urea] | 128 to 132 °C
Cc1ccc(NC(=O)Nc2ccc(-c3c(Cc4ccccc4)sc4ncnc(N)c34)cc2)cc1 [Example 9, N-[4-(4-amino-6-benzylthieno[2,3-d]pyrimidin-5-yl)phenyl]-N′-(4-methylphenyl)urea] | 169 to 173 °C
Cc1ccccc1NC(=O)Nc1ccc(-c2c(C(C)C)sc3ncnc(N)c23)cc1 [Example 12, N-[4-(4-amino-6-isopropylthieno[2,3-d]pyrimidin-5-yl)phenyl]-N′-(2-methylphenyl)urea] | 233 to 234 °C
COCCc1sc2ncnc(N)c2c1-c1ccc(NC(=O)Nc2ccccc2C)cc1 [Example 137, N-{4-[4-amino-6-(2-methoxyethyl)thieno[2,3-d]pyrimidin-5-yl]phenyl}-N′-(2-methylphenyl)urea] | 217 to 219 °C
Cc1ccccc1NC(=O)Nc1ccc(-c2c(CCO)sc3ncnc(N)c23)cc1 [Example 107, N-{4-[4-amino-6-(2-hydroxyethyl)thieno[2,3-d]pyrimidin-5-yl]phenyl}-N′-(2-methylphenyl)urea] | 159 to 162 °C
Cc1cccc(CC(=O)Nc2ccc(-c3c(CCO)sc4ncnc(N)c34)cc2)c1 [Example 350, N-{4-[4-amino-6-(2-hydroxyethyl)thieno[2,3-d]pyrimidin-5-yl]phenyl}-2-(3-methylphenyl)acetamide] | 142 to 144 °C
COCCc1sc2ncnc(N)c2c1-c1ccc(NC(=O)c2ccccc2)cc1 [Example 113, N-{4-[4-amino-6-(2-methoxyethyl)thieno[2,3-d]pyrimidin-5-yl]phenyl}benzamide] | 200 to 202 °C

From patent publication US7560552B2, “Thiopyrimidine and isothiazolopyrimidine kinase inhibitors” (Abbott Laboratories, priority 2002, dated 2009)
